Results from patent publication US7879542B2, “Methylated gene biomarkers for detecting cancer” (The Johns Hopkins University, priority 2003, dated 2011).

How the values were obtained:
[1] = system: SPARC gene expression in pancreatic cancer cells; details: pancreatic cancer cells treated with 5Aza-dC; Sato et al., manuscript submitted; cited from earlier work
SPARC mRNA expression = test: 5Aza-dC / TSA treatment of pancreatic cancer cell lines harboring SPARC methylation, SPARC mRNA by RT-PCR; type: cell-based, human
Protocol: (§1) Four μg of total RNA was reverse-transcribed using Superscript II (Invitrogen). The SPARC RT-PCR reaction was performed under the condition as follow: 95° C. for 5 minutes; then 28 cycles of 95° C. for 20 seconds, 63° C. for 20 seconds, and 72° C. for 20 seconds; and a final extension of 4 minutes at 72° C. Primer sequences were 5′-AAGATCCATGAGAATGAGAAG-3′ (forward) (SEQ ID NO: 11) and 5′-AAA AGC GGG TGG TGC AAT G-3′ (reverse) (SEQ ID NO: 12). To check the integrity of mRNA, glyceraldehyde-3-phosphate dehydrogenase (GAPDH) was also amplified in the same PCR condition. For semiquantitative analysis, the RT-PCR was performed with primers for SPARC and GAPDH in duplex reactions, and range of linear amplification for both genes was examined with serial PCR cycles to determine the optimal cycle. The relative intensity of SPARC mRNA expression was then corrected for variable RNA recovery using the corresponding GAPDH mRNA measurement as a surrogate for total mRNA.
Eight pancreatic cancer cell lines (AsPC1, BxPC3, Capan2, CFPAC1, Hs766T, MiaPaCa2, PL3, and PL12) were treated with 5Aza-dC. Cells in log phase growth were seeded in T-75 culture flasks. After overnight incubation, the cells were exposed continuously to 5Aza-dC (1 μM) for 4 days, with a change of drug and culture medium every 24 hours.
To confirm that DNA methylation is a mechanism for the silencing of SPARC, we treated 8 pancreatic cancer cell lines harboring SPARC methylation with the demethylating agent 5Aza-dC.

[2] = system: SPARC mRNA expression in fibroblasts (panc-f3); test: Effect of TGF-β on SPARC expression in fibroblasts (semiquantitative RT-PCR); type: cell-based, human; details: TGF-β 5 ng/ml, 24 hours
Protocol: as §1
(§2) Because several growth factors such as TGF-β are known to induce the SPARC expression in fibroblasts (Wrana et al., 1991; Reed et al., 1994), and because TGF-β is one of the major secreted proteins highly expressed by pancreatic cancer cells (Friess et al., 1993), we examined the effect of TGF-β on SPARC expression in fibroblasts (panc-f3). […]

[3] = system: SPARC mRNA expression in Panc1; test: Effect of TGF-β on SPARC mRNA expression in pancreatic cancer cell lines; type: cell-based, human; details: TGF-β 5 ng/ml, data not shown
Protocol: as §1, §2

[4] = system: SPARC mRNA expression in AsPC1; test: as above; type: cell-based, human; details: TGF-β 5 ng/ml, data not shown
Protocol: as §1, §2

AsPC1 cells = test: Effect of exogenous SPARC on proliferation of pancreatic cancer cells (cell count by hemacytometer); type: cell-based, human; details: SPARC 10 μg/ml, 72 hours
Protocol: (§3) We treated two pancreatic cancer cell lines (AsPC1 and Panc1) with exogenous SPARC. Cells in log phase growth were seeded at a density of 1×10^4 cells/well in 24-well plates. After overnight incubation, cells were treated with or without human platelet SPARC protein (10 μg/ml) for 72 hours, and the number of cells were counted by hemacytometer in three independent wells.
(§4) The effect of exogenous SPARC protein on growth of pancreatic cancer cells in vitro was also examined. We treated two pancreatic cancer cell lines (AsPC1 and Panc1) with purified SPARC protein and counted the number of cells after 72 hours.

Panc1 cells = test: as above; type: cell-based, human; details: SPARC 10 μg/ml, 72 hours
Protocol: as §3, §4

Nc1ncn([C@H]2C[C@H](O)[C@@H](CO)O2)c(=O)n1 [5Aza-dC, 5-Aza-2′-deoxycytidine]
induction of SPARC gene expression (oligonucleotide microarrays) [1]: ≥ 5 fold
SPARC mRNA expression after treatment (RT-PCR) (SPARC mRNA expression; 8 pancreatic cancer cell lines harboring SPARC methylation, 5Aza-dC 1 μM, 4 days): restored in 7 of the 8 cell lines
SPARC mRNA expression after treatment (RT-PCR) (SPARC mRNA expression; Hs766T cell line): did not restore the SPARC expression

TGF-β: human recombinant transforming growth factor (TGF)-β1 purchased from Sigma
increase in SPARC mRNA expression [2]: ~3,3 fold
increase in SPARC mRNA expression [3]: ~1,5 fold
SPARC transcript after treatment [4]: remained undetectable

CC(/C=C/C(=O)NO)=C\[C@@H](C)C(=O)c1ccc(N(C)C)cc1 [trichostatin A (TSA), trichostatin A]
SPARC mRNA expression after treatment (RT-PCR) (SPARC mRNA expression; Hs766T cell line): did not induce the SPARC expression

B1: SPARC: Purified human platelet SPARC protein purchased from Calbiochem (protein, UniProt P09486 18-303, looked up)
SPARC: APQQEALPDETEVVEETVAEVTEVSVGANPVQVEVGEFDDGAEETEEEVVAENPCQNHHCKHGKVCELDENNTPMCVCQDPTSCPAPIGEFEKVCSNDNKTFDSSCHFFATKCTLEGTKKGHKLHLDYIGPCKYIPPCLDSELTEFPLRMRDWLKNVLVTLYERDEDNNLLTEKQKLRVKKIHENEKRLEAGDHPVELLARDFEKNYNMYIFPVHWQFGQLDQHPIDGYLSHTELAPLRAPLIPMEHCTTRFFETCDLDNDKYIALDEWAGCFGIKQKDIDKDLVI
growth suppression (AsPC1 cells; P=0.001): ~27%
cell number (AsPC1 cells; mean±SD, untreated 5.8±0.8): 4.2±0.3 ×10^4 cells
growth inhibition (Panc1 cells; P<0.0001): ~30%
cell number (Panc1 cells; mean±SD, untreated 5.0±0.4): 3.5±0.4 ×10^4 cells
